According to patent US8748486B2, “Inhibitors of yeast filamentous growth and method of their manufacture” (priority 2003, dated 2014):

How the values were obtained:
[1] = system: C. albicans strain CAI4 (ATCC MYA-684); experiment: in vitro bioassay of inhibitory activity against C. albicans yeast-to-mycelium transition; type: cell-based, Candida albicans; conditions: comparison within cis/trans pair, FIG. 2
Method: An in vitro bioassay of the inhibitory activity of the fatty acids of FIG. 2 against C. albicans yeast-to-mycelium transition was carried out.
C. albicans strain CAI4 (ATCC MYA-684) was incubated at 28° C. for 24 h with shaking in a glucose salts (GS) medium (5 g of glucose, 0.26 g of Na2HPO4.12H2O, 0.66 g of KH2PO4, 0.88 g of MgSO4.7H2O, 0.33 g of NH4Cl, 16 μg of biotin per liter) supplemented with 0.1 mg/ml of uridine.
All the C. albicans cells remained, in the yeast form under these conditions. The yeast cells were washed three times with GS medium before use and then were dispersed in GS medium to give a solution with a final OD600 of 1.0.
The test compounds set out in FIG. 2 were diluted to the indicated concentrations with GS medium and were added to 100 μl of the washed C. albicans culture in 96-well microtitre plates, mixed and incubated at 37° C. for 6 hours (h).
The percentages of yeast cells and germ tubes (filamentous form) were determined microscopically by counting about 300 cells from three replicates. Inhibitory activity was defined as the mole concentration that gave a minimum of 90% inhibition (IC90) relative to control.

C. albicans = conditions: cited from earlier work
C. albicans strain CAI4 [2] = experiment: yeast-to-mycelium conversion of a C. albicans culture at 37° C. with or without DSF; type: cell-based, Candida albicans
Method: (§1) A starter culture of C. albicans strain CAI4 was prepared by growing the fungus at a low temperature (28° C.) in GS medium to maintain the yeast cell morphology. […] The synthetic DSF was indistinguishable with the natural DSF in inhibition of germ tube formation.

C. albicans strain CAI4 [3] = experiment: toxic effect on yeast cell growth; type: cell-based, Candida albicans; conditions: for toxic effect on yeast cell growth: concentrations up to 1 mM
Method: as §1

SMILES: CCCCCCCCC/C=C\C(=O)O [Compound 7, cis-2-dodecenoic acid]
- inhibitory activity of cis- and trans-isomer pairs compared [1]: very similar or identical inhibitory activity

SMILES: CC(C)=CCCC(C)=CCCC(C)=CC(=O)O [Compound 3, 3,7,11-trimethyl-2,6,10-dodecatrienoic acid]
- C. albicans germ tube (mycelium) formation (C. albicans): inhibits

SMILES: CC(C)CCCCCCC/C=C/C(=O)O [Compound 2, trans-11-methyl-2-dodecenoic acid]
- inhibitory activity of cis- and trans-isomer pairs compared [1]: identical inhibitory activity

SMILES: C=C(C)C1CC=C(C=O)CC1 (stereo not shown) [perillaldehyde]
- formation of filamentous structures of C. albicans (C. albicans): interfere with the formation of filamentous structures

SMILES: CC(C)CCCCCCC/C=C\C(=O)O [Compound 1, cis-11-methyl-2-dodecenoic acid]
- inhibitory activity of cis- and trans-isomer pairs compared [1]: identical inhibitory activity
- yeast-to-mycelium transition (C. albicans strain CAI4 [2]; 30 μM, 37° C., within 6 hours, GS medium): completely abolished
- yeast-to-mycelium transition of a culture of Candida albicans (C. albicans strain CAI4 [2]; FIGS. 3a and 3b): inhibits
- inhibition of germ tube formation compared with the natural DSF (C. albicans strain CAI4 [2]; synthetic versus natural DSF): indistinguishable
- effect on yeast growth (C. albicans strain CAI4 [3]; FIGS. 3a and 3b): does not affect yeast growth
- toxic effect on yeast cell growth (C. albicans strain CAI4 [3]): not observed to have a toxic effect
- toxic effect on yeast cell growth (C. albicans strain CAI4 [3]; listed as DSF): No toxic effect

SMILES: C=C(C)C1CC=C(C)C(=O)C1 (stereo not shown) [Carvone]
- formation of filamentous structures of C. albicans (C. albicans): interfere with the formation of filamentous structures

SMILES: CC(C)=CCCC(C)=CCCC(C)=CCO [Farnesol]
- mycelial development of C. albicans (C. albicans; growth morphology assay and differentiation assay, activators L-proline, N-acetylglucosamine, serum): prevent mycelial development
